Details of data set [1]: method as in PMID 4525165. The conditions noted are these: reported in 1973; cited from earlier work.
The target of the next data set is T1, Aβ42 (Homo sapiens, UniProt P05067).
T1 construct: Small red spheres mark the Aβ42 peptide C-terminal residue, A42; purchased Sigma-Aldrich Corp
Nature of the data set: Aβ42 fibril formation versus CS percentage (ThT). The data set is classed as biochemical. The note with it: [CS]+[CH] 20 μM, Aβ42 1.0 μM. The method, then: To experimentally assess the potential impact of CS on fibril formation in vivo, fibril synthesis was monitored over a series of CS/CH ratios that span the physiological range.
Figure 8 Aβ42fibril formation versus CS percentage. Fibril formation was detected via binding-induced changes in ThT fluorescence (λex = 450 nm, λem = 482 nm). Reaction conditions: Aβ42 (1.0 μM), CS percent (as indicated), [CS] + [CH] (20 μM), ThT (30 μM), DMSO (0.5 % v/v), K2PO4 (50 mM), pH 7.4, 25 °C ± 2 deg. C. Progress curves were performed in triplicate and averaged data are shown. Lines passing through the data represent the behavior predicted by the NEF model using the Table 2 rate constants.

The structures appear in SMILES notation.

T1 sequence (P05067 672-713 limits assumed): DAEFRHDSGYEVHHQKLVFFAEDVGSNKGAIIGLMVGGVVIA

`CC(C)CCC[C@@H](C)[C@H]1CC[C@H]2[C@@H]3CC=C4C[C@@H](O)CC[C@]4(C)[C@H]3CC[C@]12C` [CH, cholesterol]: the “critical micelle concentration (CMC)” value in data set [1] is recorded as 25 to 40 nM.

Consider `CC(C)CCC[C@@H](C)[C@H]1CC[C@H]2[C@@H]3CC=C4C[C@@H](OS(=O)(=O)O)CC[C@]4(C)[C@H]3CC[C@]12C` [CS, cholesterol 3-sulfate], for which the fibril formation lag-time entry is listed as “shortens by several hours” on Aβ42 (0.1% CS), “nearly halved” on Aβ42 (1% CS) and “approaches that of pure CS” at Aβ42 (10% CS).

Source of the values: PMC10704437, “Sterol-activated amyloid beta fibril formation” (The Journal of Biological Chemistry, 2023).
